Laboratory results published in patent US20040010036A1, “N,N, -Substituted s-Aryl-Isothioureas, N,N,N, -Substituted s-Aryl-Isothioureas and combinatorial libraries thereof” (priority 2002, published 2004).

Tested on: Streptococcus pyogenes (ATCC# 97-03 14289)
Assay: Anti-microbial screen (percent inhibition of growth, OD 570 nm)
Type: cell-based
Details: Conc 0.1776 mg ml
Description: Streptococcus pyogenes (ATCC# 97-03 14289) was grown in Todd Hewitt Broth (THB) (Difco Laboratories #0492-17-6) overnight until reaching an optical density of (OD=0.636@570 nm) by reading 0.1 ml in a 96 well microtiter plate in a Molecular Devices Thermomax. This preparation was kept frozen as stocks in 30% v/v glycerol in 1.5 ml aliquots at […] until use. Prior to experiments, 6 ml aliquots were thawed and diluted into 50 ml 2×THB. 60 ul of this dilution was added to 92 wells of microtiter plate. To three wells THB (200 ul) was added to serve as a blank and a sterility control. Test compounds in DMSO and appropriate concentrations of DMSO were added to Growth/Solvent Controls at 0 time. Plates were read at 0 time at 570 nm in the Molecular Devices plate reader to obtain compounds correction factors for insoluble or colored compounds. Plates were read again at 4 hours.
Percent inhibition is calculated with the following formula:
Color correct=O.D. 0 hr - Blank 0 hr)-(Solvent Control Ohr - Blank 0 hr) [formula]

[1] = Streptococcus pyogenes, Assay Spy4H, plates read at 570 nm at 0 time and at 4 hours
[2] = Spy4H: Streptococcus pyogenes, read at 4 hours, OD 570 nm

Row | SMILES | inhibition of growth at 177.6 µg/mL [1] [%] | inhibition of growth at 177.6 µg/mL [2] [%]
1 | COc1cccc(S/C(=N\Cc2cccc(C)c2)N(CCc2ccc(Cl)cc2)Cc2ccc(O)cc2)c1 [Cmpd 362] | 50.9 | –
2 | COc1cccc(S/C(=N\c2cccc(F)c2)N(CCc2ccc(Cl)cc2)Cc2ccc(O)cc2)c1 [Cmpd 363] | 50.3 | –
3 | COc1cccc(S/C(=N\Cc2ccc(F)cc2)N(CCc2ccc(Cl)cc2)Cc2ccc(O)cc2)c1 [Cmpd 364] | – | 66.9
4 | COc1cccc(S/C(=N\c2cccc(C(F)(F)F)c2)N(CCc2ccc(Cl)cc2)Cc2ccc(O)cc2)c1 [Cmpd 366] | 49.1 | –
5 | COc1cccc(S/C(=N\c2ccc(C(F)(F)F)cc2)N(CCc2ccc(Cl)cc2)Cc2ccc(O)cc2)c1 [Cmpd 367] | – | 70.5
6 | COc1cccc(S/C(=N\c2cc(Cl)cc(Cl)c2)N(CCc2ccc(Cl)cc2)Cc2ccc(O)cc2)c1 [Cmpd 373] | – | 75
7 | COc1cccc(S/C(=N\c2ccc(Cl)c([N+](=O)[O-])c2)N(CCc2ccc(Cl)cc2)Cc2ccc(O)cc2)c1 [Cmpd 383] | 56.7 | –
8 | COc1cccc(S/C(=N/c2ccc(Cl)c(C(F)(F)F)c2)N(CCc2ccc(Cl)cc2)Cc2ccc(O)cc2)c1 [Cmpd 393] | 54.5 | –
9 | COc1cccc(S/C(=N\c2ccc(F)c(F)c2)N(CCc2ccc(Cl)cc2)Cc2ccc(O)cc2)c1 [Cmpd 396] | 54.2 | –
10 | Cc1ccc(CN(Cc2cccc(O)c2)/C(=N/c2ccc(C(F)(F)F)cc2)Sc2ccc(C)cc2)cc1 [Cmpd 407] | – | 71.7
11 | Cc1ccc(CN(Cc2cccc(O)c2)/C(=N/c2cc(Cl)cc(Cl)c2)Sc2ccc(C)cc2)cc1 [Cmpd 413] | – | 57.6
12 | Cc1ccc(CN(Cc2cccc(O)c2)/C(=N/c2ccc(F)c(Cl)c2)Sc2ccc(C)cc2)cc1 [Cmpd 414] | 49.1 | –
13 | Cc1ccc(CN(Cc2cccc(O)c2)/C(=N/c2ccc(Cl)c([N+](=O)[O-])c2)Sc2ccc(C)cc2)cc1 [Cmpd 423] | 57.3 | –
14 | Cc1ccc(CN(Cc2cccc(O)c2)/C(=N/c2ccccc2[N+](=O)[O-])Sc2ccc(C)cc2)cc1 [Cmpd 426] | – | 67.4
15 | COc1ccc(C)cc1/N=C(\Sc1ccc(C)cc1)N(Cc1ccc(C)cc1)Cc1cccc(O)c1 [Cmpd 429] | – | 79.5
16 | Cc1ccc(CN(Cc2cccc(O)c2)/C(=N\c2ccc(Cl)c(C(F)(F)F)c2)Sc2ccc(C)cc2)cc1 [Cmpd 433] | 51.7 | –
17 | Cc1ccc(CN(Cc2cccc(O)c2)/C(=N/Cc2ccc(F)cc2)Sc2cccc(C)c2)cc1 [Cmpd 444] | 56.6 | –
18 | Cc1ccc(CN(Cc2cccc(O)c2)/C(=N/c2ccc(C(F)(F)F)cc2)Sc2cccc(C)c2)cc1 [Cmpd 447] | – | 99.5
19 | Cc1ccc(CN(Cc2cccc(O)c2)/C(=N/c2cc(Cl)cc(Cl)c2)Sc2cccc(C)c2)cc1 [Cmpd 453] | – | 60.5
20 | Cc1ccc(CN(Cc2cccc(O)c2)/C(=N/c2ccc(Cl)c([N+](=O)[O-])c2)Sc2cccc(C)c2)cc1 [Cmpd 463] | – | 86.7
21 | Cc1ccc(CN(Cc2cccc(O)c2)/C(=N/c2ccccc2[N+](=O)[O-])Sc2cccc(C)c2)cc1 [Cmpd 466] | – | 69.7
22 | COc1ccc(C)cc1/N=C(\Sc1cccc(C)c1)N(Cc1ccc(C)cc1)Cc1cccc(O)c1 [Cmpd 469] | 53 | –
23 | Cc1ccc(CN(Cc2cccc(O)c2)/C(=N\c2ccc(Cl)c(C(F)(F)F)c2)Sc2cccc(C)c2)cc1 [Cmpd 473] | – | 57.6
24 | Cc1ccc(S/C(=N/c2ccc(C(F)(F)F)cc2)N(Cc2ccccc2)Cc2ccc(O)cc2)c(C)c1 [Cmpd 487] | – | 82.8
25 | Cc1ccc(S/C(=N\c2cc(Cl)cc(Cl)c2)N(Cc2ccccc2)Cc2ccc(O)cc2)c(C)c1 [Cmpd 493] | 55.6 | –
26 | Cc1ccc(S/C(=N/c2ccc(Cl)c([N+](=O)[O-])c2)N(Cc2ccccc2)Cc2ccc(O)cc2)c(C)c1 [Cmpd 503] | 57.3 | –

Row | SMILES | inhibition of growth at 177.6 µg/mL [1] [%] | inhibition of growth at 177.6 µg/mL [2] [%]
27 | Cc1ccc(S/C(=N/c2ccc(Cl)c(C(F)(F)F)c2)N(Cc2ccccc2)Cc2ccc(O)cc2)c(C)c1 [Cmpd 513] | 52.9 | –
28 | Cc1cccc(S/C(=N/Cc2ccccc2)N(Cc2cccc(O)c2)CC(C)C)c1 [Cmpd 521] | 50.6 | –
29 | Cc1cccc(C/N=C(/Sc2cccc(C)c2)N(Cc2cccc(O)c2)CC(C)C)c1 [Cmpd 522] | 54.6 | –
30 | Cc1cccc(S/C(=N/Cc2ccc(F)cc2)N(Cc2cccc(O)c2)CC(C)C)c1 [Cmpd 524] | – | 89.5
31 | Cc1cccc(S/C(=N/c2cccc(C(F)(F)F)c2)N(Cc2cccc(O)c2)CC(C)C)c1 [Cmpd 526] | 50 | –
32 | Cc1cccc(S/C(=N/c2ccc(C(F)(F)F)cc2)N(Cc2cccc(O)c2)CC(C)C)c1 [Cmpd 527] | – | 96.4
33 | Cc1cccc(S/C(=N/c2cc(Cl)cc(Cl)c2)N(Cc2cccc(O)c2)CC(C)C)c1 [Cmpd 533] | 52 | –
34 | COc1ccc(C)cc1/N=C(/Sc1cccc(C)c1)N(Cc1cccc(O)c1)CC(C)C [Cmpd 549] | – | 62.9
35 | COCCN(Cc1ccc(O)cc1)/C(=N\c1cc(Cl)cc(Cl)c1)Sc1ccc(C)cc1 [Cmpd 653] | – | 80.2
36 | CCc1cccc(/N=C(/Sc2ccc(C)cc2)N(CCOC)Cc2ccc(O)cc2)c1 [Cmpd 658] | 53 | –
37 | COCCN(Cc1ccc(O)cc1)/C(=N\c1ccc(Cl)c([N+](=O)[O-])c1)Sc1ccc(C)cc1 [Cmpd 663] | 54.8 | –
38 | COCCN(Cc1ccc(O)cc1)/C(=N\c1ccc(Cl)c(C(F)(F)F)c1)Sc1ccc(C)cc1 [Cmpd 673] | – | 72.8
39 | COCCN(Cc1ccc(O)cc1)/C(=N\c1ccc(F)c(F)c1)Sc1ccc(C)cc1 [Cmpd 676] | – | 87.5
40 | Cc1cccc(S/C(=N\Cc2ccc(F)cc2)N(CCc2ccc(Cl)cc2)Cc2cccc(O)c2)c1 [Cmpd 684] | – | 94.1
41 | Cc1cccc(S/C(=N\c2cccc(C(F)(F)F)c2)N(CCc2ccc(Cl)cc2)Cc2cccc(O)c2)c1 [Cmpd 686] | – | 68.4
42 | Cc1cccc(S/C(=N\c2ccc(F)c(Cl)c2)N(CCc2ccc(Cl)cc2)Cc2cccc(O)c2)c1 [Cmpd 694] | – | 62.5
43 | Cc1cccc(S/C(=N\c2ccccc2[N+](=O)[O-])N(CCc2ccc(Cl)cc2)Cc2cccc(O)c2)c1 [Cmpd 706] | – | 63.6
44 | COc1ccc(C)cc1/N=C(\Sc1cccc(C)c1)N(CCc1ccc(Cl)cc1)Cc1cccc(O)c1 [Cmpd 709] | 49.7 | –
45 | CCCCN(Cc1cccc(O)c1)/C(=N\Cc1ccc(F)cc1)Sc1ccccc1 [Cmpd 724] | – | 83.3
46 | CCCCN(Cc1cccc(O)c1)/C(=N\c1ccc(C(F)(F)F)cc1)Sc1ccccc1 [Cmpd 727] | 56.3 | –
47 | CCCCN(Cc1cccc(O)c1)/C(=N\c1cc(Cl)cc(Cl)c1)Sc1ccccc1 [Cmpd 733] | – | 63.5
48 | CCCCN(Cc1cccc(O)c1)/C(=N\c1ccc(F)c(Cl)c1)Sc1ccccc1 [Cmpd 734] | – | 89.6
49 | CCCCN(Cc1cccc(O)c1)/C(=N\c1ccc(Cl)c([N+](=O)[O-])c1)Sc1ccccc1 [Cmpd 743] | – | 64.2
50 | CCCCN(Cc1cccc(O)c1)/C(=N\c1ccc(Cl)c(C(F)(F)F)c1)Sc1ccccc1 [Cmpd 753] | – | 66
51 | CCCCN(Cc1cccc(O)c1)/C(=N\c1ccc(F)c(F)c1)Sc1ccccc1 [Cmpd 756] | – | 71.9
